The target in one assay is T1, CDK1/Cyclin B1, GST-tag (Homo sapiens, UniProt P06493).
T1 construct: GST; purchased BPS 40454
In words: Biochemical CDK inhibition assay (Caliper mobility shift), CDK1/Cyclin B1. As for the experimental part:
(§1) Inhibitory effects of the compounds of the disclosure were measured in biochemical assays that measure the enzymatic phosphorylation activity of CDK enzyme in complex of Cyclin proteins phosphorylates 7.5 micromolar fluorescently labelled peptide substrate, 5-FAM-QSPKKG-CONH2, (FL-Peptide 18, Perkin Elmer, 760362) in the presence of adenosine-5′-triphosphate (ATP) and varying concentrations of the test compound in 100 mM 2-[4-(2-hydroxyethyl)piperazin-1-yl] ethanesulfonic acid (HEPES), pH 7.5, 10 mM MgCl2, 0.015% Brij-35, 1 mM dithiothreitol (DTT), 1.0% dimehylsulfoxide (DMSO). […] Reactions proceeded until between 10% to 20% total peptides were phosphorylated at room temperature (25° C.) and were terminated with 35 mM 2,2′,2″,2′″-(ethane-1,2-diyldinitrilo)tetraacetic acid (EDTA). Product was detected using the Caliper mobility shift detection method where the phosphorylated peptide (product) and substrate were electrophoretically separated and measured. Percent activity was plotted against log concentration of compound and points to generate an apparent IC50. The following CDK enzymes in complex with different cyclin proteins were used in these assays: • CDK1/Cyclin B1, GST-tag (BPS, 40454), 1.5 nM used in the assay • CDK2/Cyclin E (Eurofins, 14-475), 1.25 nM used in the assays
(§2) For inhibitory activity against CDK2/Cyclin E mutant, the following designations are used: ≤10 nM=A; >10-20 nM=B; >20-30 nM=C; >30-100 nM=D and >100=E. For inhibition CDK1/Cyclin B1, GST-tag: ≥500 nM=A; <100-500 nM=B; <100 nM=C.

The next assay addresses T2, CDK2/Cyclin E (Homo sapiens, UniProt P24941).
T2 construct: purchased Eurofins 14-475
The experiment in a line: Biochemical CDK inhibition assay (Caliper mobility shift), CDK2/Cyclin E. Particulars: read-out: CDK2/cyclin E1 IC50. As for the experimental part:
as §1, §2

The structures appear in SMILES notation. A value given as a limit tells only on which side of the number the result lay.

T1 sequence (P06493 whole entry): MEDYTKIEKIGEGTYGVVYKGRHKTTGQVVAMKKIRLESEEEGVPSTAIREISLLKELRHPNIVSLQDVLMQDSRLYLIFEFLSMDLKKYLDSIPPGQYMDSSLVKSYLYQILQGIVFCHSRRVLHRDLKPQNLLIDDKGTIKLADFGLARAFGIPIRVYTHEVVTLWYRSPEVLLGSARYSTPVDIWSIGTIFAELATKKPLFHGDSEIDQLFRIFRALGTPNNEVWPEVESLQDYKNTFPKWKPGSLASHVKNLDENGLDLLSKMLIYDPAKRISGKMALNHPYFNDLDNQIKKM
T1 sequence (P14635 whole entry partner): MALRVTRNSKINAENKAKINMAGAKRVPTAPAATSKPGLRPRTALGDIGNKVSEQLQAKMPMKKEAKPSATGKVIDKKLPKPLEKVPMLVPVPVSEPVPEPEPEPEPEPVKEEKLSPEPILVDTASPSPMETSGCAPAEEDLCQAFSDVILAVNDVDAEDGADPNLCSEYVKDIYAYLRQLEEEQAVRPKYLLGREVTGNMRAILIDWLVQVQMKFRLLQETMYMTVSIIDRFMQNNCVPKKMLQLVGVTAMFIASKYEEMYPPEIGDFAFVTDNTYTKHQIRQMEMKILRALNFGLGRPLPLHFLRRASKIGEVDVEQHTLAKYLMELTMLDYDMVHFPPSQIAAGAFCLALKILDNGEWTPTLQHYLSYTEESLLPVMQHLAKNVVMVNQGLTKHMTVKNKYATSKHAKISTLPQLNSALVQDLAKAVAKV

As for `CC(C)(O)Cn1cc(-c2nc(Nc3ccc(S(N)(=O)=O)cc3F)ncc2C(F)F)cn1` [Example 11, 4-((5-(difluoromethyl)-4-(1-(2-hydroxy-2-methylpropyl)-1H-pyrazol-4-yl)pyrimidin-2-yl)amino)-3-fluorobenzenesulfonamide], the IC50 on CDK1/Cyclin B1, GST-tag is 100 to 500 nM; on CDK2/Cyclin E it was not above 10 nM.

`CCc1cnc(Nc2ccc(S(N)(=O)=O)cc2)nc1-c1cnn(CC(C)(C)O)c1` [Example 24, 4-((5-ethyl-4-(1-(2-hydroxy-2-methylpropyl)-1H-pyrazol-4-yl)pyrimidin-2-yl)amino)benzenesulfonamide]: the IC50 on CDK1/Cyclin B1, GST-tag is 100 to 500 nM; at CDK2/Cyclin E it was not above 10 nM.

Regarding `C[C@H](O)[C@H](C)n1cc(-c2nc(Nc3ccc(S(N)(=O)=O)cc3F)ncc2C(F)(F)F)cn1` (single isomer, unassigned) [Example 9], the IC50 was 100 to 500 nM on CDK1/Cyclin B1, GST-tag and not above 10 nM on CDK2/Cyclin E.

Take `C[C@H](O)Cn1cc(-c2nc(Nc3ccc(S(N)(=O)=O)cc3F)ncc2C(F)(F)F)cn1` [Example 35, (S)-3-fluoro-4-((4-(1-(2-hydroxypropyl)-1H-pyrazol-4-yl)-5-(trifluoromethyl)pyrimidin-2-yl)amino)benzenesulfonamide]: the IC50 was not below 500 nM on CDK1/Cyclin B1, GST-tag and 10 to 20 nM at CDK2/Cyclin E.

For `Cc1cnc(Nc2ccc(S(N)(=O)=O)cc2)nc1-c1cnn(CC(C)(C)O)c1` [Example 17, 4-((4-(1-(2-hydroxy-2-methylpropyl)-1H-pyrazol-4-yl)-5-methylpyrimidin-2-yl)amino)benzenesulfonamide], the IC50 at CDK1/Cyclin B1, GST-tag was 100 to 500 nM; at CDK2/Cyclin E, not above 10 nM.

Consider `Cc1cnc(Nc2ccc(S(N)(=O)=O)cc2F)nc1-c1cnn(CC(C)(C)O)c1` [Example 36, 3-fluoro-4-((4-(1-(2-hydroxy-2-methylpropyl)-1H-pyrazol-4-yl)-5-methylpyrimidin-2-yl)amino)benzenesulfonamide], for which the IC50 is not below 500 nM at CDK1/Cyclin B1, GST-tag and 10 to 20 nM on CDK2/Cyclin E.

For the compound `CC(C)(O)Cn1cc(-c2nc(Nc3ccc(S(N)(=O)=O)cc3F)ncc2F)cn1` [Example 30, 3-fluoro-4-((5-fluoro-4-(1-(2-hydroxy-2-methylpropyl)-1H-pyrazol-4-yl)pyrimidin-2-yl)amino)benzenesulfonamide], the IC50 was 100 to 500 nM at CDK1/Cyclin B1, GST-tag and not above 10 nM on CDK2/Cyclin E.

For the compound `CC(C)(O)Cn1cc(-c2nc(Nc3ccc(S(N)(=O)=O)cc3)ncc2Cl)cn1` [Example 3, 4-((5-chloro-4-(1-(2-hydroxy-2-methylpropyl)-1H-pyrazol-4-yl)pyrimidin-2-yl)amino)benzenesulfonamide], the IC50 at CDK1/Cyclin B1, GST-tag is less than 100 nM; on CDK2/Cyclin E it was not above 10 nM.

In the case of `NS(=O)(=O)c1ccc(Nc2ncc(C(F)(F)F)c(-c3cnn(CC(O)C4CC4)c3)n2)c(F)c1` (centres unmarked) [Example 32, 4-((4-(1-(2-cyclopropyl-2-hydroxyethyl)-1H-pyrazol-4-yl)-5-(trifluoromethyl)pyrimidin-2-yl)amino)-3-fluorobenzenesulfonamide], the IC50 on CDK1/Cyclin B1, GST-tag was not below 500 nM; at CDK2/Cyclin E, 10 to 20 nM.

For the compound `Cc1cc(Nc2ncc(C(F)(F)F)c(-c3cnn(CC(C)(C)O)c3)n2)cc(C)c1S(N)(=O)=O` [Example 37, 4-((4-(1-(2-hydroxy-2-methylpropyl)-1H-pyrazol-4-yl)-5-(trifluoromethyl)pyrimidin-2-yl)amino)-2,6-dimethylbenzenesulfonamide], the IC50 fell in the range of 100 to 500 nM on CDK1/Cyclin B1, GST-tag and 10 to 20 nM on CDK2/Cyclin E.

On to `C[C@H]([C@@H](C)O)n1cc(-c2nc(Nc3ccc(S(N)(=O)=O)cc3F)ncc2C(F)(F)F)cn1` (single isomer, unassigned) [Example 25], for which the IC50 on CDK1/Cyclin B1, GST-tag is 100 to 500 nM; on CDK2/Cyclin E, not above 10 nM.

Turning to `C[C@@H](O)[C@H](C)n1cc(-c2nc(Nc3ccc(S(N)(=O)=O)cc3F)ncc2C(F)(F)F)cn1` (single isomer, unassigned) [Example 13], the IC50 is 100 to 500 nM at CDK1/Cyclin B1, GST-tag and not above 10 nM on CDK2/Cyclin E.

Consider `CC(C)(O)Cn1cc(-c2nc(Nc3ccc(S(N)(=O)=O)cc3)ncc2C#N)cn1` [Example 8, 4-((5-cyano-4-(1-(2-hydroxy-2-methylpropyl)-1H-pyrazol-4-yl)pyrimidin-2-yl)amino)benzenesulfonamide], for which the IC50 is less than 100 nM at CDK1/Cyclin B1, GST-tag and not above 10 nM at CDK2/Cyclin E.

Take `N#Cc1cnc(Nc2ccc(S(N)(=O)=O)cc2)nc1-c1cnn(CCO)c1` [Example 34, 4-((5-cyano-4-(1-(2-hydroxyethyl)-1H-pyrazol-4-yl)pyrimidin-2-yl)amino)benzenesulfonamide]: the IC50 at CDK1/Cyclin B1, GST-tag was in the range of 100 to 500 nM; at CDK2/Cyclin E, 10 to 20 nM.

On to `CC(C)(O)Cn1cc(-c2nc(Nc3ccc(S(N)(=O)=O)c(Cl)c3F)ncc2C(F)(F)F)cn1` [Example 38, 2-chloro-3-fluoro-4-((4-(1-(2-hydroxy-2-methylpropyl)-1H-pyrazol-4-yl)-5-(trifluoromethyl)pyrimidin-2-yl)amino)benzenesulfonamide], for which the IC50 was not below 500 nM at CDK1/Cyclin B1, GST-tag and 10 to 20 nM on CDK2/Cyclin E.

Turning to `Cc1cc(Nc2ncc(C(F)(F)F)c(-c3cnn(CC(C)(C)O)c3)n2)c(F)cc1S(N)(=O)=O` [Example 45, 5-fluoro-4-((4-(1-(2-hydroxy-2-methylpropyl)-1H-pyrazol-4-yl)-5-(trifluoromethyl)pyrimidin-2-yl)amino)-2-methylbenzenesulfonamide], the IC50 on CDK1/Cyclin B1, GST-tag was not below 500 nM; at CDK2/Cyclin E, 20 to 30 nM.

Take `COc1c(S(N)(=O)=O)ccc(Nc2ncc(C(F)(F)F)c(-c3cnn(CC(C)(C)O)c3)n2)c1F` [Example 40, 3-fluoro-4-((4-(1-(2-hydroxy-2-methylpropyl)-1H-pyrazol-4-yl)-5-(trifluoromethyl)pyrimidin-2-yl)amino)-2-methoxybenzenesulfonamide]: the IC50 was not below 500 nM on CDK1/Cyclin B1, GST-tag and 10 to 20 nM on CDK2/Cyclin E.

Turning to `C[C@H](O)[C@@H](C)n1cc(-c2nc(Nc3ccc(S(N)(=O)=O)cc3F)ncc2C(F)(F)F)cn1` (single isomer, unassigned) [Example 15], the IC50 was 100 to 500 nM on CDK1/Cyclin B1, GST-tag and not above 10 nM at CDK2/Cyclin E.

Regarding `CC(C)(O)Cn1cc(-c2nc(Nc3ccc(S(N)(=O)=O)cc3Cl)ncc2F)cn1` [Example 44, 3-chloro-4-((5-fluoro-4-(1-(2-hydroxy-2-methylpropyl)-1H-pyrazol-4-yl)pyrimidin-2-yl)amino)benzenesulfonamide], the IC50 is not below 500 nM on CDK1/Cyclin B1, GST-tag and 20 to 30 nM on CDK2/Cyclin E.

Consider `Cc1c(S(N)(=O)=O)ccc(Nc2ncc(C(F)(F)F)c(-c3cnn(CC(C)(C)O)c3)n2)c1F` [Example 21, 3-fluoro-4-((4-(1-(2-hydroxy-2-methylpropyl)-1H-pyrazol-4-yl)-5-(trifluoromethyl)pyrimidin-2-yl)amino)-2-methylbenzenesulfonamide], for which the IC50 is 100 to 500 nM at CDK1/Cyclin B1, GST-tag and not above 10 nM on CDK2/Cyclin E.

On to `CC(C)(O)Cn1cc(-c2nc(Nc3ccc(S(N)(=O)=O)cc3F)ncc2C#N)cn1` [Example 19, 4-((5-cyano-4-(1-(2-hydroxy-2-methylpropyl)-1H-pyrazol-4-yl)pyrimidin-2-yl)amino)-3-fluorobenzenesulfonamide], for which the IC50 at CDK1/Cyclin B1, GST-tag is 100 to 500 nM; at CDK2/Cyclin E it was not above 10 nM.

As for `C[C@@H](O)Cn1cc(-c2nc(Nc3ccc(S(N)(=O)=O)cc3F)ncc2C(F)(F)F)cn1` [Example 20, (R)-3-fluoro-4-((4-(1-(2-hydroxypropyl)-1H-pyrazol-4-yl)-5-(trifluoromethyl)pyrimidin-2-yl)amino)benzenesulfonamide], the IC50 on CDK1/Cyclin B1, GST-tag was 100 to 500 nM; on CDK2/Cyclin E, not above 10 nM.

For `COc1cc(S(N)(=O)=O)ccc1Nc1ncc(C(F)(F)F)c(-c2cnn(CC(C)(C)O)c2)n1` [Example 27, 4-((4-(1-(2-hydroxy-2-methylpropyl)-1H-pyrazol-4-yl)-5-(trifluoromethyl)pyrimidin-2-yl)amino)-3-methoxybenzenesulfonamide], the IC50 on CDK1/Cyclin B1, GST-tag was 100 to 500 nM; on CDK2/Cyclin E, not above 10 nM.

On to `C[C@H](n1cc(-c2nc(Nc3ccc(S(N)(=O)=O)cc3F)ncc2C(F)(F)F)cn1)C(C)(C)O` (single isomer, unassigned) [Example 6, (S)-3-fluoro-4-((4-(1-(3-hydroxy-3-methylbutan-2-yl)-1H-pyrazol-4-yl)-5-(trifluoromethyl)pyrimidin-2-yl)amino)benzenesulfonamide or (R)-3-fluoro-4-((4-(1-(3-hydroxy-3-methylbutan-2-yl)-1H-pyrazol-4-yl)-5-(trifluoromethyl)pyrimidin-2-yl)amino)benzenesulfonamide], for which the IC50 is less than 100 nM at CDK1/Cyclin B1, GST-tag and not above 10 nM on CDK2/Cyclin E.

For `C[C@@H](n1cc(-c2nc(Nc3ccc(S(N)(=O)=O)cc3F)ncc2C(F)(F)F)cn1)C(C)(C)O` (single isomer, unassigned) [Example 7, (R)-3-fluoro-4-((4-(1-(3-hydroxy-3-methylbutan-2-yl)-1H-pyrazol-4-yl)-5-(trifluoromethyl)pyrimidin-2-yl)amino)benzenesulfonamide or (S)-3-fluoro-4-((4-(1-(3-hydroxy-3-methylbutan-2-yl)-1H-pyrazol-4-yl)-5-(trifluoromethyl)pyrimidin-2-yl)amino)benzenesulfonamide], the IC50 on CDK1/Cyclin B1, GST-tag was 100 to 500 nM; on CDK2/Cyclin E, not above 10 nM.

These data come from patent US12668585B2, “Substituted pyrimidinyl-pyrazoles as CDK2 inhibitors” (BLUEPRINT MEDICINES CORPORATION, priority 2021, dated 2026).
